One assay deals with T1, K-Ras G12D (Homo sapiens, UniProt P01116, G12D).
T1 construct: made in house; host or cells: E. coli BL21 (DE3)
Briefly: HTRF resonance energy transfer assay, K-Ras G12D / SOS1 interaction. It is filed as biochemical. Conditions: HTRF assay of Example 5; read-out: IC50 against K-Ras G12D. Put shortly: (§1)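 Buffer about 5 mM HEPES pH 7.4 with ~150 mM NaCl, ~1 mM DTT, 0.05% BSA, 0.0025% (v/v) Igepal. Protein constructs used at molarity matching the IC50 range studied (e.g. ~500 nM). FRET between tagged K-Ras and hSOS1 measured after short incubation.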
Background: TR-FRET usually uses a lanthanide donor and a delayed reading to cut background.

The next assay has as its target T2, K-Ras G12S (Homo sapiens, UniProt P01116, G12S).
T2 construct: made in house; host or cells: E. coli BL21 (DE3)
Kind of assay: HTRF resonance energy transfer assay, K-Ras G12S / SOS1 interaction. It is filed as biochemical. The settings on record: HTRF assay of Example 5; read-out: IC50 against K-Ras G12S. Put shortly:
as §1

In the next assay the target is T3, K-Ras G12V (Homo sapiens, UniProt P01116, G12V).
T3 construct: made in house; host or cells: E. coli BL21 (DE3)
Briefly: HTRF resonance energy transfer assay, K-Ras G12V / SOS1 interaction. It is filed as biochemical. The settings on record: HTRF assay of Example 5; read-out: IC50 against K-Ras G12V. The essentials:
as §1

A further assay addresses T4, K-Ras WT (Homo sapiens, UniProt P01116).
T4 construct: made in house; host or cells: E. coli BL21 (DE3)
Kind of assay: HTRF resonance energy transfer assay, K-Ras WT / SOS1 interaction. It is filed as biochemical. The settings on record: HTRF assay of Example 5; read-out: IC50 against K-Ras WT. Put shortly: as §1

The next assay deals with GP2D cells. Kind of assay: Ras cellular assay, growth of cells with K-Ras G12D mutation (CellTiter-Glo). Conditions: cell growth, Example 9, G12D mutation, read-out: IC50 against GP2D cells. It is filed as cell-based.
A further assay has as its system A549 cells. Briefly: Ras cellular assay, growth of cells with K-Ras G12S mutation (CellTiter-Glo). It counts as cell-based. Conditions: Homo sapiens, cell growth, Example 9, G12S mutation, read-out: IC50 against A549 cells. The essentials: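 Growth inhibition IC50 values come from four-parameter fits of CellTiter-Glo luminescence, read about 6 days after compound addition. G12S-mutant A549 cells (e.g. 800/well, RPMI-1640 + 10% heat-inactivated FBS) were plated in tissue-culture-treated or ultra-low-attachment 384-well format. Dosing began the following day with serial dilutions, e.g. 10 points, 3-fold.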
In general terms: In ATP-based viability assays light output follows the ATP content of the culture.

In the next assay the test system is SW620 cells. Briefly: Ras cellular assay, growth of cells with K-Ras G12V mutation (CellTiter-Glo). It is filed as cell-based. The settings on record: Homo sapiens, SW-620; cell growth, Example 9, G12V mutation; read-out: IC50 against SW620 cells. The essentials: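 IC50 values came from a four-parameter fit of CellTiter-Glo viability, read roughly 6 days after dosing with e.g. a 10-point threefold dilution series. G12V-mutant SW620 cells (e.g. 800 per well) had been plated the previous day in RPMI-1640/10% heat-inactivated FBS, on tissue culture-treated or ultra-low attachment plates.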

Structures are written as SMILES. pIC50: −log10 of the molar value. A value given as a limit tells only on which side of the number the result lay.

T3 sequence (P01116 1-188 isoform P01116-2 G12V): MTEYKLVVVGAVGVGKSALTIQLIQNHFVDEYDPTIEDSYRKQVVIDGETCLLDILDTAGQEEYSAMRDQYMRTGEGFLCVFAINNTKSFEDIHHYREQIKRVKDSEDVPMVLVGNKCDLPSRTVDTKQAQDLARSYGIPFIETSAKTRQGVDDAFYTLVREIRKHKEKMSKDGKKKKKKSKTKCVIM
T1 sequence (P01116 1-188 isoform P01116-2 G12D): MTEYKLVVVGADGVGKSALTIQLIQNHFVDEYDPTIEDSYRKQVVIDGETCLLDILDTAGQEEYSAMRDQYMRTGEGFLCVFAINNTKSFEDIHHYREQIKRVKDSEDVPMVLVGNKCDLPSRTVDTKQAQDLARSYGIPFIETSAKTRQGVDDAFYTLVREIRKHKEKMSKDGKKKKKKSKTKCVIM
T4 sequence (P01116 1-188 isoform P01116-2): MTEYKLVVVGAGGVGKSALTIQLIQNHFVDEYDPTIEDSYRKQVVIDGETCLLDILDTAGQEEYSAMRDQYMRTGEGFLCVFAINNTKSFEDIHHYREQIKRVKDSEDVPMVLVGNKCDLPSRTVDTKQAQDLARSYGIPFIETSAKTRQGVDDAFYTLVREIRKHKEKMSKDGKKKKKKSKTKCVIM
T2 sequence (P01116 1-188 isoform P01116-2 G12S): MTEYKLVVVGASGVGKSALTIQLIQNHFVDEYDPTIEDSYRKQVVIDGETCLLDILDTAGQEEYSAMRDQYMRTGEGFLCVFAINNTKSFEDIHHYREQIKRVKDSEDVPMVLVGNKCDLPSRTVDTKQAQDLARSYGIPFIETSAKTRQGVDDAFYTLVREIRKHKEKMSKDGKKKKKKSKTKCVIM

What is called pIC50 is −log10 of the IC50, conventionally taken in molar units. In the case of `C[C@H](O)[C@H]1COc2c(Cl)c(-c3ccc(F)c4sc(N)c(C#N)c34)c(F)c3nc(OC[C@@]45CCCN4C[C@H](F)C5)nc(c23)N1CC(F)F` [Compound 817, 2-amino-4-((5R)-8-chloro-4-(2,2-difluoroethyl)-10-fluoro-2-(((2R,7aS)-2-fluorotetrahydro-1H-pyrrolizin-7a(5H)-yl)methoxy)-5-((S)-1-hydroxyethyl)-5,6-dihydro-4H-[1,4]oxazepino[5,6,7-de]quinazolin-9-yl)-7-fluorobenzo[b]thiophene-3-carbonitrile], the pIC50 on K-Ras G12D is over 7.00; at K-Ras G12S, over 7.00; at K-Ras G12V, over 7.00; at K-Ras WT, over 7.00; with GP2D cells it was over 6.30; with A549 cells it was over 5.30. Further, the negative logarithm of the IC50 (pIC50) in the assay with SW620 cells was over 5.30.

Turning to `N#Cc1c(N)sc2c(F)ccc(-c3c(Cl)c4c5c(nc(OC[C@@]67CCCN6C[C@H](F)C7)nc5c3F)N(C3CCCOC3)CCO4)c12` (stereo partly drawn) [Compound 819, 2-amino-4-(8-chloro-10-fluoro-2-(((2R,7aS)-2-fluorotetrahydro-1H-pyrrolizin-7a(5H)-yl)methoxy)-4-(tetrahydro-2H-pyran-3-yl)-5,6-dihydro-4H-[1,4]oxazepino[5,6,7-de]quinazolin-9-yl)-7-fluorobenzo[b]thiophene-3-carbonitrile], the pIC50 at K-Ras G12D is over 7.00; at K-Ras G12S, over 7.00; on K-Ras G12V it was over 7.00; at K-Ras WT, over 7.00; in the assay on GP2D cells, over 6.30; with A549 cells, over 5.30. In addition, the pIC50 with SW620 cells was over 5.30.

Turning to `COC1CN(C(=O)N2CCC(N3CCOc4c(Cl)c(-c5ccc(F)c6sc(N)c(C#N)c56)c(F)c5nc(OC[C@@]67CCCN6C[C@H](F)C7)nc3c45)C2)C1` (stereo partly drawn) [Compound 834, 2-amino-4-(8-chloro-10-fluoro-2-(((2R,7aS)-2-fluorotetrahydro-1H-pyrrolizin-7a(5H)-yl)methoxy)-4-(1-(3-methoxyazetidine-1-carbonyl)pyrrolidin-3-yl)-5,6-dihydro-4H-[1,4]oxazepino[5,6,7-de]quinazolin-9-yl)-7-fluorobenzo[b]thiophene-3-carbonitrile], the pIC50 on K-Ras G12D is over 7.00; at K-Ras G12S it was over 7.00; on K-Ras G12V, over 7.00; at K-Ras WT, over 7.00; in the assay with GP2D cells, over 6.30; in the assay on A549 cells it was over 5.30. Moreover, the pIC50 in the assay with SW620 cells was over 5.30.

`C[C@H]1COc2c(Cl)c(-c3ccc(F)c4sc(N)c(C#N)c34)c(F)c3nc(OC[C@@]45CCCN4C[C@H](F)C5)nc(c23)N1CCC(F)F` [Compound 835, 2-amino-4-((5S)-8-chloro-4-(3,3-difluoropropyl)-10-fluoro-2-(((2R,7aS)-2-fluorotetrahydro-1H-pyrrolizin-7a(5H)-yl)methoxy)-5-methyl-5,6-dihydro-4H-[1,4]oxazepino[5,6,7-de]quinazolin-9-yl)-7-fluorobenzo[b]thiophene-3-carbonitrile]: the pIC50 was over 7.00 at K-Ras G12D; over 7.00 on K-Ras G12S; over 7.00 at K-Ras G12V; over 7.00 at K-Ras WT; over 6.30 with GP2D cells; over 5.30 in the assay on A549 cells. The pIC50 in the assay on SW620 cells was over 5.30.

For the compound `N#Cc1c(N)sc2c(F)ccc(-c3c(Cl)c4c5c(nc(OC[C@@]67CCCN6C[C@H](F)C7)nc5c3F)N(CC3CC3(F)F)CCO4)c12` (stereo partly drawn) [Compound 850, 2-amino-4-(8-chloro-4-((2,2-difluorocyclopropyl)methyl)-10-fluoro-2-(((2R,7aS)-2-fluorotetrahydro-1H-pyrrolizin-7a(5H)-yl)methoxy)-5,6-dihydro-4H-[1,4]oxazepino[5,6,7-de]quinazolin-9-yl)-7-fluorobenzo[b]thiophene-3-carbonitrile], the negative-log IC50 (pIC50) at K-Ras G12D is over 7.00; on K-Ras G12S, over 7.00; at K-Ras G12V, over 7.00; on K-Ras WT, over 7.00; with GP2D cells, over 6.30; in the assay with A549 cells, over 5.30. For the same compound, the pIC50 in the assay with SW620 cells is over 5.30.

In the case of `N#Cc1c(N)sc2c(F)ccc(-c3c(Cl)c4c5c(nc(OC[C@@]67CCCN6C[C@H](F)C7)nc5c3F)N(C3CCCC(O)C3)CCO4)c12` (stereo partly drawn) [Compound 854, 2-amino-4-(8-chloro-10-fluoro-2-(((2R,7aS)-2-fluorotetrahydro-1H-pyrrolizin-7a(5H)-yl)methoxy)-4-(3-hydroxycyclohexyl)-5,6-dihydro-4H-[1,4]oxazepino[5,6,7-de]quinazolin-9-yl)-7-fluorobenzo[b]thiophene-3-carbonitrile], the negative-log IC50 (pIC50) on K-Ras G12D is over 7.00; at K-Ras G12S, over 7.00; at K-Ras G12V, over 7.00; on K-Ras WT, over 7.00; with GP2D cells, over 6.30; in the assay with A549 cells, over 5.30. For the same compound, the pIC50 with SW620 cells was over 5.30.

For the compound `N#Cc1c(N)sc2c(F)ccc(-c3c(Cl)c4c5c(nc(OC[C@@]67CCCN6C[C@H](F)C7)nc5c3F)N(C3CCN(C(=O)C5CC(C(F)F)C5)C3)CCO4)c12` (stereo partly drawn) [Compound 864, 2-amino-4-(8-chloro-4-(1-(3-(difluoromethyl)cyclobutane-1-carbonyl)pyrrolidin-3-yl)-10-fluoro-2-(((2R,7aS)-2-fluorotetrahydro-1H-pyrrolizin-7a(5H)-yl)methoxy)-5,6-dihydro-4H-[1,4]oxazepino[5,6,7-de]quinazolin-9-yl)-7-fluorobenzo[b]thiophene-3-carbonitrile], the negative-log IC50 (pIC50) at K-Ras G12D is over 7.00; at K-Ras G12S, over 7.00; on K-Ras G12V, over 7.00; on K-Ras WT, over 7.00; in the assay on GP2D cells, over 6.30; in the assay with A549 cells, over 5.30. For the same compound, in the assay with SW620 cells, the negative-log IC50 (pIC50) was over 5.30.

`N#Cc1c(N)sc2c(F)ccc(-c3c(Cl)c4c5c(nc(OC[C@@]67CCCN6C[C@H](F)C7)nc5c3F)N(CC3(O)CC3)CCO4)c12` [Compound 868, 2-amino-4-(8-chloro-10-fluoro-2-(((2R,7aS)-2-fluorotetrahydro-1H-pyrrolizin-7a(5H)-yl)methoxy)-4-((1-hydroxycyclopropyl)methyl)-5,6-dihydro-4H-[1,4]oxazepino[5,6,7-de]quinazolin-9-yl)-7-fluorobenzo[b]thiophene-3-carbonitrile]: the negative-log IC50 (pIC50) was over 7.00 at K-Ras G12D; over 7.00 on K-Ras G12S; over 7.00 on K-Ras G12V; over 7.00 on K-Ras WT; over 6.30 in the assay on GP2D cells; over 5.30 in the assay with A549 cells. Further, in the assay on SW620 cells, the pIC50 is over 5.30.

`N#Cc1c(N)sc2c(F)ccc(-c3c(Cl)c4c5c(nc(OC[C@@]67CCCN6C[C@H](F)C7)nc5c3F)N(C3CCN(C(=O)CC5CCOCC5)C3)CCO4)c12` (stereo partly drawn) [Compound 869, 2-amino-4-(8-chloro-10-fluoro-2-(((2R,7aS)-2-fluorotetrahydro-1H-pyrrolizin-7a(5H)-yl)methoxy)-4-(1-(2-(tetrahydro-2H-pyran-4-yl)acetyl)pyrrolidin-3-yl)-5,6-dihydro-4H-[1,4]oxazepino[5,6,7-de]quinazolin-9-yl)-7-fluorobenzo[b]thiophene-3-carbonitrile]: the pIC50 was over 7.00 at K-Ras G12D; over 7.00 at K-Ras G12S; over 7.00 at K-Ras G12V; over 7.00 on K-Ras WT; over 6.30 with GP2D cells; over 5.30 in the assay on A549 cells. In addition, the negative logarithm of the IC50 (pIC50) in the assay on SW620 cells is over 5.30.

For the compound `N#Cc1c(N)sc2c(F)ccc(-c3c(Cl)c4c5c(nc(OC[C@@]67CCCN6C[C@H](F)C7)nc5c3F)N(C3COCC3O)CCO4)c12` (stereo partly drawn) [Compound 874, 2-amino-4-(8-chloro-10-fluoro-2-(((2R,7aS)-2-fluorotetrahydro-1H-pyrrolizin-7a(5H)-yl)methoxy)-4-(4-hydroxytetrahydrofuran-3-yl)-5,6-dihydro-4H-[1,4]oxazepino[5,6,7-de]quinazolin-9-yl)-7-fluorobenzo[b]thiophene-3-carbonitrile], the pIC50 on K-Ras G12D is over 7.00; at K-Ras G12S, over 7.00; at K-Ras G12V, over 7.00; at K-Ras WT, over 7.00; in the assay with GP2D cells, over 6.30; in the assay with A549 cells, over 5.30. Besides, the negative logarithm of the IC50 (pIC50) in the assay with SW620 cells was over 5.30.

Values taken from patent publication US12209102B2, “Heterocyclic compounds and uses thereof” (Kumquat Biosciences Inc., priority 2022, dated 2025).
